{
  "source": "patent US8481678B2",
  "about": "“Peptide-based tooth whitening reagents” (E I du Pont de Nemours and Company, priority 2009, dated 2013)",
  "key": {"[1]": {"details": "20 μM biotinylated peptide; mean of at least three replicates; no-peptide control 0.066", "text": "Enzyme-linked immunosorbent assay (ELISA) was used to evaluate the cellulose acetate coated iron oxide particle-binding affinity of the biopanning selected peptide candidates (Example 6; biotinylated peptides phage ID: CA-1 to CA-4). The identified peptides were synthesized using a standard solid-phase synthesis method (see U.S. patent application Ser. No. 11/251/715). All peptides were modified to contain a biotinylated lysine residue at the C-terminus of the amino acid binding sequence for detection purposes (Table 6).\nThe cellulose acetate-coated iron oxide particles were dispersed in water at 2.5 mg per mL. […] The particle dispersion (1 mL each) was then centrifuged for 2 min at 5000 rpm, the aqueous was removed by aspirating it out of each tube. The tubes were incubated in SUPERBLOCK® blocking buffer (Pierce Chemical Company, Rockford, Ill.; Prod. #37535) for 1 hour at room temperature (˜22° C.), followed by 3 washes with TBST (TBS in 0.05% TWEEN® 20). Then tubes were then rinsed 3 times with wash buffer consisting of TBST-0.05% using the same centrifugation and aspiration methods. Peptide binding buffer consisting of 20 μM biotinylated peptides in TBST and 1 mg/mL BSA was added to the particles and incubated for 1 hour at room temperature (˜22° C.), followed by 6 TBST washes. Then, the streptavidin-alkaline phosphatase (AP) conjugate (Pierce Chemical Co., Rockford, Ill.) was added to each well at standard concentration and incubated for 1 hour at room temperature, followed by 6 times of washes with TBST. All particles were then transferred to new tubes and then the color development and the absorbance measurements were performed following the manufacturer's standard protocols."}, "[2]": {"experiment": "Phage ELISA, tooth enamel-binding assay (unpolished enamel blocks)", "set-up": "species or system bovine", "details": "phage ELISA on unpolished enamel, over 10^10 pfu phage; no-phage control 0.193", "method": "(§1) A total of 11 selected phage candidates (Example 3) were used in a phage ELISA experiment. Purified phage lysates were used for binding to the enamel blocks using an anti-M13 phage antibody conjugated to horseradish-peroxidase, followed by the addition of chromogenic agent TMB, obtained from Pierce Biotechnology (Rockford, Ill.). The plates were read at A450 nm.\n(§2) For each phage candidate to be tested, the polished and unpolished enamel blocks were incubated for 1 h at room temperature with 200 μL of blocking buffer, consisting of 2% non-fat dry milk (Schleicher & Schuell, Inc.) in TBS. […] The tube was rinsed 6 times with wash buffer consisting of TBST-0.05%. The wells were filled with 200 μL of TBST-0.5% containing 1 mg/mL BSA and then 10 μL (over 10^10 pfu) of purified phage stock was added. The samples were incubated at room temperature for 60 min with slow shaking. The non-binding phage was removed by washing 6 times with TBST-0.5%. […] The conjugate solution was removed and was washed 6 times with TBST-0.5%. […] “BoEn P” means bovine polished enamel and BoEn means bovine enamel."}, "[3]": {"experiment": "Phage ELISA, polished enamel-binding assay", "set-up": "species or system bovine", "details": "phage ELISA on polished enamel, over 10^10 pfu phage; no-phage control 0.112", "method": "as §1, §2"}, "[4]": {"system": "pellicle-coated enamel substrates", "details": "20 μM synthetic biotinylated peptide, 30 min at 37° C.; normalized to DenP03; three replicates; no peptide −0.001", "method": "A total of 20 synthetic peptides were manufactured using sequences obtained from Table 14. Peptides were obtained from Synbiosci (Livermore, Calif.) and included an additional SSRP sequence (SEQ ID NO: 151) at the N-terminus and biotin labeled lysine at the C-terminus.\nEnamel substrates were cut to approx. 7 mm squares and mounted on wax mounting for incubation in the mouth for 30 min to form a pellicle coated surface. The pellicle-coated enamel substrates were removed from the wax backing and placed in well plates with the pellicle surface exposed as in Example 1. Each pellicle-coated substrate was incubated for 1 h at room temperature (˜22° C.) with 1 mL of blocking buffer, consisting of 1 mg/mL BSA in PBST (Pierce BupH™ #28372 with 0.1% TWEEN® 20). The blocking buffer was removed by aspirating the liquid out of each well. The tube was rinsed 2 times with wash buffer consisting of PBST. The wells were filled with 500 μL of 20 μM peptide solution which was prepared by diluting in blocking buffer. The samples were incubated for 30 min with slow shaking at 37° C. The non-binding peptide was removed by washing 6 times with PBST. Then, 500 μL of horseradish peroxidase/streptavidin conjugate (Pierce #22127), diluted 1:2000 in PBST, was added and incubated for 1 h at room temperature. The conjugate solution was removed and was washed 4 times with PBST.\nEach enamel substrate was removed from the well and washed again in a 15-mL test tube with 10 mL of PBST. Each enamel substrate was then mounted in a clean well plate with only the enamel surface exposed. A 1:1 solution of TMB substrate and H2O2 (200 μL), obtained from Pierce Biotechnology (Rockford, Ill.) was added to each well and the color was allowed to develop for between 10 to 20 min, typically for 15 min, at room temperature (˜22° C.). Then, 100 μL of solution from each well was transferred to a 96-well reading plate containing stop solution (100 μL of 2 M H2SO4) in each well. The A450 was measured using a microplate spectrophotometer (Molecular Devices, Sunnyvale, Calif.). […] Each sequence was tested with three replicate enamel coated pellicle substrates."}, "[5]": {"system": "pellicle-coated enamel substrates", "details": "range of peptide concentrations, 2 h at 37° C., 4-MUP fluorescence; calculated from Scatchard plots", "text": "The pellicle-coated enamel substrates were removed from the wax backing and placed in well plates with the pellicle surface exposed as in Example 1. […] The blocking buffer was removed by aspirating the liquid out of each well. The tube was rinsed 2 times with wash buffer consisting of PBST. […] The non-binding peptide was removed by washing 6 times with PBST. […] The conjugate solution was removed and was washed 4 times with PBST.\nEach enamel substrate was removed from the well and washed again in a 15-mL test tube with 10 mL of PBST. Each enamel substrate was then mounted in a clean well plate with only the enamel surface exposed."}},
  "note": "Where no end group is shown, it is not given here. The star is where a group is joined. Biotin = O=C1N[C@H]2[C@H](CS[C@H]2CCCCC(=O)*)N1",
  "data": [
    {"substance": "SDETGPQIPHRRPTW-K-biotin-NH2 [CA-4]", "values": [
      {"measurement": "O.D. at 405 nm", "setting": "[1]", "result": 0.141}
    ]},
    {"substance": "VGTMKQHPTTTQPPRVSATN (Tooth-binding peptide) [BoEn 9]", "values": [
      {"measurement": "O.D. at 450 nm", "setting": "[2]", "result": 0.568}
    ]},
    {"substance": "YSETPNDQKPNPHYKVSGTK (Tooth-binding peptide) [BoEn 10]", "values": [
      {"measurement": "O.D. at 450 nm", "setting": "[2]", "result": 3.942}
    ]},
    {"substance": "LNDQRKPGPPTMPTHSPAVG (Tooth-binding peptide) [BoEn 5]", "values": [
      {"measurement": "O.D. at 450 nm", "setting": "[2]", "result": 0.944}
    ]},
    {"substance": "AANPHTEWDRDAFQLAMPPK (Tooth-binding peptide) [BoEn 1]", "values": [
      {"measurement": "O.D. at 450 nm", "setting": "[2]", "result": 1.402}
    ]},
    {"substance": "THNMSHFPPSGHPKRTAT (Tooth-binding peptide) [BoEn P8]", "values": [
      {"measurement": "O.D. at 450 nm", "setting": "[3]", "result": 2.02}
    ]},
    {"substance": "NTCATSPNSYTCSN (Tooth-binding peptide) [BoEn 6]", "values": [
      {"measurement": "O.D. at 450 nm", "setting": "[2]", "result": 2.38}
    ]},
    {"substance": "SDCTAGLVPPLCAT (Tooth-binding peptide) [BoEn 7]", "values": [
      {"measurement": "O.D. at 450 nm", "setting": "[2]", "result": 0.892}
    ]},
    {"substance": "SSRPTTYHYKNIYQESYQQRNPAVK(Biotin) [DenP3-A]", "values": [
      {"measurement": "O.D. at 450 nm (normalized)", "setting": "[4]", "result": 1.000},
      {"measurement": "MB50", "setting": "[5]", "result": 28, "unit": "µM"}
    ]},
    {"substance": "ATTPPSGKAAAHSAARQKGN-K-biotin-NH2 [CA-1]", "values": [
      {"measurement": "O.D. at 405 nm", "setting": "[1]", "result": 0.269}
    ]},
    {"substance": "NTCQPTKNATPCSA (Tooth-binding peptide) [BoEn P6]", "values": [
      {"measurement": "O.D. at 450 nm", "setting": "[3]", "result": 0.83}
    ]},
    {"substance": "NGNNHTDIPNRSSYTGGSFA-K-biotin-NH2 [CA-3]", "values": [
      {"measurement": "O.D. at 405 nm", "setting": "[1]", "result": 0.279}
    ]},
    {"substance": "EPPTRTRVNNHTVTVQAQQH (Tooth-binding peptide) [BoEn P2]", "values": [
      {"measurement": "O.D. at 450 nm", "setting": "[3]", "result": 0.641}
    ]},
    {"substance": "GYCLRGDEPAVCSG (Tooth-binding peptide) [BoEn P3]", "values": [
      {"measurement": "O.D. at 450 nm", "setting": "[3]", "result": 0.665}
    ]},
    {"substance": "NFCETQLDLSVCTV (Tooth-binding peptide) [BoEn P5]", "values": [
      {"measurement": "O.D. at 450 nm", "setting": "[3]", "result": 0.797}
    ]},
    {"substance": "SSRPHKNENIMQYNVNDRWHITPAK(Biotin) [DenP32-A]", "values": [
      {"measurement": "O.D. at 450 nm (normalized)", "setting": "[4]", "result": 1.135},
      {"measurement": "MB50", "setting": "[5]", "result": 25, "unit": "µM"}
    ]},
    {"substance": "DTIHPNKMKSPSSPL-K-biotin-NH2 [CA-2]", "values": [
      {"measurement": "O.D. at 405 nm", "setting": "[1]", "result": 0.207}
    ]}
  ]
}
